# Measurements as given in patent US20050164983A1, “Carboxyl-reduced derivatives of dermatan sulfate, preparation thereof, use thereof as a medicinal product and the pharmaceutical compositions containing them” (Aventis Pharma S.A., priority 2003, published 2005).
# Assays:
# aggrecanase = assay: Effect on the aggrecanase in synovial fluids or on preparations of recombinant ADAMTS protein (Agg1mut substrate, BC-3 ELISA); format: biochemical; settings: for Estimated IC50: aggrecanase, substrate conversion
# Method: Effect of the carboxyl-reduced derivatives according to the invention on the aggrecanase in synovial fluids or on preparations of recombinant ADAMTS protein.
# The analysis is carried out on 96-well plates. Before the analysis, serial dilutions of the assay compounds are prepared in an aqueous solution.
# In each well, a fixed volume of synovial fluid or aggrecanase activity generating a known increase, between 1.0 and 1.4 absorbance units (405 nm), under the conditions of the analysis, is mixed with 3 μl of solution of compound from the respective dilution step. Dulbecco's modified Eagle's medium (DMEM) is added to each well to give a final volume of 300 μl. The plate is then incubated for 1 hour at 37° C. in a carbon dioxide atmosphere.
# Preparation of the analytical plate:
# In a first step, the microplate is coated with 100 μl per well of a commercial goat anti-mouse IgG antibody for 1 hour at ambient temperature (5 μg/ml in a phosphate buffered saline solution, pH 7.4 [PBS buffer]). After washing with the PBS buffer containing 0.1% of Tween-20 (washing buffer), the wells are blocked by means of a step consisting of a one hour incubation with 100 μl per well of 5% bovine serum albumin in a PBS buffer containing 0.05% of Tween-20.
# After another rinse of the analytical plate with the washing buffer, the complete set of mixtures originating from the preceding digestion is transferred to this plate, well by well, and incubated at ambient temperature for one hour. The plate is again washed as above. Next, 100 μl of the second antibody (anti-human IgG antibody labeled with peroxidase, 1:1000 in PBS containing 0.5% of BSA and 0.05% of Tween-20) are added to each well, with subsequent incubation at ambient temperature again for one hour. […] The measurement is carried out by means of the screen mode using detection at 405 nm relative to a reference filter (620 nm) with automatic readings at 5-second intervals. The development is stopped as soon as the maximum signal (405 nm) in the absorbance range of 1.0 to 1.4 is reached.
# bovine factor Xa [1] = molecular target: T1, bovine factor Xa (Bos taurus, UniProt P00743); assay: Inhibition of factor Xa (chromogenic substrate S-2765, with human antithrombin III); format: biochemical; settings: calibrated against Enoxaparin
# Method: For the calibration, a standard sample of low molecular weight heparin (Enoxaparin) was used as reference.
# The serial dilutions of the assay compound are prepared in a 0.046 M Tris buffer, pH 8.4, containing 0.15 M NaCl, 0.007 M EDTA, 0.1% of Tween 80 and 0.12 IU/ml of human antithrombin III. The samples of 50 μl of the respective dilutions are incubated with 50 μl of bovine factor Xa (13.6 U/ml) at 37° C. for 80 seconds. Next, 50 μl of chromogenic substrate, 1.1 mM S-2765, are added. The absorbance at 405 nm is measured in a photometer. The activity of the deblocked factor Xa is indicated by the emission of p-nitroaniline from the substrate.
# [2] = molecular target: T2, human neutrophil elastase (Homo sapiens, UniProt P08246); assay: Inhibitory activity on human neutrophil elastase; format: biochemical; settings: 15 min incubation
# T2 construct: purchased Sigma E8140
# T2 sequence (P08246 30-267): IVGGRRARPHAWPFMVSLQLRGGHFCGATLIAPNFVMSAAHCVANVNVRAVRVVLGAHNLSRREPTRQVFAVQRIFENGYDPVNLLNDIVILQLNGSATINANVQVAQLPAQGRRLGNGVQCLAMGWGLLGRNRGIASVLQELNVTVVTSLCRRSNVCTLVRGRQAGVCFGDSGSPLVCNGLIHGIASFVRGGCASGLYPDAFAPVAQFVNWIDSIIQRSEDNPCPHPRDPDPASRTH
# Method: Effects of the Carboxyl-reduced Derivatives According to the Invention on Human Neutrophil Elastase
# A commercially available enzyme (for example, human neutrophil elastase, Sigma No. E8140) is reconstituted in aliquots of 0.1 mg per vial with 0.276 ml of 50 mM sodium acetate buffer, pH 5.5, containing 200 mM NaCl (stock solution of the enzyme); 11 μl of this stock solution are diluted with 1.1 ml of the above HEPES buffer (enzyme assay solution).
# The substrate solution is prepared by dissolving 118 mg of methoxy-succinyl-L-Ala-L-Ala-L-Pro-L-Val-p-nitro-anilide in 1 ml of DMSO (stock solution, for example Sigma No. M4765). In view of the application in the analysis, 9 μl of stock solution are then diluted in 1.19 ml of H2O.
# Serial dilutions of the assay compounds are prepared in 100 mM of HEPES buffer containing 500 mM of NaCl. The analysis is carried out on colorless 96-well polystyrene microplates (for example, Corning Costar, No. 3695.
# 10 μl of enzyme assay solution are mixed with 10 μl of the respective solution of diluted compound and 10 μl of the substrate solution. After incubation for 15 min, the cleavage of the substrate is read as increase in absorbance at 405 nm.
# bovine factor Xa [3] = molecular target: T1, bovine factor Xa; settings: reference low-molecular weight heparin used for calibration; cited from earlier work
# [4] = conc. of glycosaminoglycan 0.0001 μg/ml
# [5] = conc. of glycosaminoglycan 0.001 μg/ml
# [6] = conc. of glycosaminoglycan 0.01 μg/ml
# [7] = conc. of glycosaminoglycan 0.1 μg/ml
# T1 sequence (P01008 33-464 partner): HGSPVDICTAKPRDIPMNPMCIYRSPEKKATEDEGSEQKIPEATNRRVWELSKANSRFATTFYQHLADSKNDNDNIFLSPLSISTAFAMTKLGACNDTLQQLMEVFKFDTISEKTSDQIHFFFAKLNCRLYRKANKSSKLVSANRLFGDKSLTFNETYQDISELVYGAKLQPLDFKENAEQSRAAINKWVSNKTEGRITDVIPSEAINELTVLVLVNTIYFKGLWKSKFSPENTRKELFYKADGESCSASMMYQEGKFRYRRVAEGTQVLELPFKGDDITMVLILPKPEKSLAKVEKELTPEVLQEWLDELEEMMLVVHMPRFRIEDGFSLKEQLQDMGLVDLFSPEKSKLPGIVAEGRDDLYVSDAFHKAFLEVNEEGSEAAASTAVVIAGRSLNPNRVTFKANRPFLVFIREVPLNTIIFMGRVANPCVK
# T1 sequence (P00743 234-492 limits assumed): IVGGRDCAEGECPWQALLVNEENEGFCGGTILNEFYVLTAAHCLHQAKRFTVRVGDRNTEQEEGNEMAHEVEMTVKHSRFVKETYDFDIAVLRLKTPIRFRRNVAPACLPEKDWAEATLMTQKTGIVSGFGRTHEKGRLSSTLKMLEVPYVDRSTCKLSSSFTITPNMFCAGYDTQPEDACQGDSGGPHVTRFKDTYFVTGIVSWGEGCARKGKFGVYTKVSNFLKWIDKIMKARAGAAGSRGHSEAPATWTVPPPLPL
Substance,Estimated IC50 (aggrecanase),% Conversion (aggrecanase; [4]),% Conversion (aggrecanase; [5]),% Conversion (aggrecanase; [6]),% Conversion (aggrecanase; [7]),% Conversion (aggrecanase; conc. of glycosaminoglycan 1.0 μg/ml),Anti-factor Xa activity (bovine factor Xa [1]),IC50 [2],Anti-factor Xa activity of the reference standard (bovine factor Xa [3])
"6-O-sulfated, Carboxyl-reduced Dermatan Sulfate Sodium Salt [Example 5]",0.26 µg/mL,100.0%,96.4%,84.3%,70.2%,36.1%,0 U/mg,10.0 µg/mL,–
Carboxyl-reduced Dermatan Sulfate Sodium Salt [Example 1],~7.9 µg/mL,–,–,–,–,–,–,–,–
Enoxaparin,–,–,–,–,–,–,–,–,100 U/mg
"Persulfated, Carboxyl-reduced Dermatan Sulfate Sodium Salt [Example 4]",0.007 µg/mL,100.0%,93.4%,27.4%,18.0%,–,1.1 U/mg,0.11 µg/mL,–
